Among the data in patent US4843161A, “Platinum-intercalative complexes for the treatment of cancer” (Massachusetts Institute of Technology, priority 1984, dated 1989) are ILS and Mean values, retold here.

One assay concerns L1210/PDD. Briefly: antitumor activity in mice implanted with a tumor cell line resistant to cisDDP (Table III). The assay is classed as in vivo. The conditions noted are these: q4d × 4.
In another assay the test system is L1210/0. The assay can be described thus: antitumor activity in mice implanted intraperitoneally with L1210 (Table II). The conditions noted are these: d 1, 5, 9, 13. Type of assay: in vivo. On the set-up: Mean: unit not given beside the values. The method, then:
The optimal dose is 15 mg/kg giving a %ILS of 51% versus control mice implanted with L1210 but not treated with the drug.

One may read the ILS as how much longer treated animals lived than controls. `N.N.[Cl][Pt][Cl]` [CisDDP, cis-diamminedichloroplatinum (II)]: the increase in life span (ILS) in the assay on L1210/PDD (dose 2.0) was determined as 0%; with L1210/PDD (dose 3.0) it was 0%; with L1210/PDD (dose 4.5), 0%; in the assay with L1210/0 (first L1210/0 group, dose 3) it was 34%; in the assay on L1210/0 (second L1210/0 group, dose 2.0), 26%; in the assay with L1210/0 (second L1210/0 group, dose 3.0) it was 51%. The compound further came in with an ILS with L1210/0 (second L1210/0 group, dose 4.5) of 113%. Also, the Mean in the assay with L1210/PDD (dose 2.0) is 11.0; in the assay on L1210/PDD (dose 3.0), 10.8; in the assay on L1210/PDD (dose 4.5), 11.0; in the assay on L1210/0 (first L1210/0 group, dose 3), 11.9; with L1210/0 (second L1210/0 group, dose 2.0) it was 11.6; in the assay on L1210/0 (second L1210/0 group, dose 3.0) it was 13.9. In addition, the Mean with L1210/0 (second L1210/0 group, dose 4.5) came to 19.6.
